Data reported in EPA's ToxValDB 9.5 (doi:10.2903/j.efsa.2006.53r).
≈ marks a conversion by molar mass, not a printed value.

Key:
Apis mellifera = settings: acute, mortality
Canidae = settings: Dog Other, organ weight
Tagia sp. = settings: acute; mortality
Aphidius rhopalosiphi = settings: not reported; mortality
Colinus virginianus = settings: for LD50: acute, oral, mortality

## COCC(C)N(C(=O)CCl)c1c(C)csc1C (stereo unspecified) [Dimethenamid]
Apis mellifera; duration: 48 hours, dermal
  LD50: 94 µg/piece
Apis mellifera; oral, unspecified
  LD50: 1000 µg/piece
Daphnia magna; acute, duration: 48 hours, mortality
  LC50: 12 µg/mL (≈ 43.5 µM)
Daphnia magna; chronic/long-term, duration: 21 days
  NOEC: 0.68 mg/L
Canidae; chronic, duration: 1 years
  NOAEL: 2 mg/kg-day
Canidae; subchronic, duration: 90 days
  NOAEL: 4.3 mg/kg-day
Tagia sp.
  LC50: 294 mg/kg
Aphidius rhopalosiphi
  LEL: 1010 g/ha
Oncorhynchus mykiss; acute, duration: 96 hours, mortality
  LC50: 2.6 µg/mL (≈ 9.43 µM)
Oncorhynchus mykiss; chronic/long-term, duration: 90 days, growth
  NOEC: 0.12 mg/L
Rattus norvegicus; acute, oral, mortality
  LD50: 397 mg/kg
Rattus norvegicus; reproduction developmental, growth
  NOAEL: 33.3 mg/kg-day
Rattus norvegicus; short-term, duration: 4 days, oral, gavage, organ weight
  NOAEL: 25 mg/kg-day
Colinus virginianus; diet
  LD50: 1200 mg/kg
Colinus virginianus
  LD50: 1910 mg/kg
Colinus virginianus; reproduction developmental
  NOAEL: 114 mg/kg-day
